Reference: patent US10603345B2, “Pharmaceutical composition for treating respiratory disease” (Kunming Institute of Botany, The Chinese Academy of Sciences, priority 2015, dated 2020)

Experiments:
Assay type in all cases: in vivo
[1] = tested on: Col-1 in homogenate of pulmonary fibrosis model mouse; assay: Effect on Col-1 in homogenate of pulmonary fibrosis model mouse; details: ELISA, bleomycin pulmonary fibrosis mouse, ig 28 d, dose/kg: prednisone acetate 5 mg, Test group 1 50, 2 25, 3 12.5, picrinine 5.0, vallesamine 3.0, scholaricine 3.5, 19-epi-scholaricine 1.0 mg, x ± SD
Protocol: (§1) Animal source: 30˜35 g male ICR mouse, from laboratory animal department of Kunming Medical University, License No. SCXK (Dian) 2011-0004.
(§2) Method and route: bleomycin was used to induce mouse pulmonary fibrosis, and after intragastrical administration for 28 d at a dose of 20 mL/kg, the animal was sacrificed at the 29th day.
(§3) Group and dose: Sham group, Model group, Positive control group, prednisone acetate (5 mg/kg) group, Test group 1: picrinine, vallesamine, scholaricine and 19-epischolaricine prepared in Example 1.7 were mixed at different ratios by weight (50 mg/kg), Test group 2: the alkaloid composition (25 mg/kg) prepared in Example 1.5, Test group 3: the alkaloid composition (12.5 mg/kg) prepared in Example 1.6, Picrinine group (5.0 mg/kg), Vallesamine group (3.0 mg/kg), Scholaricine group (3.5 mg/kg), and 19-epischolaricine group (1.0 mg/kg).
(§4) Positive control drug: prednisone acetate tablet, Approval number: H33021207, 5 mg/tablet, produced by Zhejiang Xianju Pharmaceutical Co., Ltd., Batch No. 140146.
(§5) Sample preparation: all the samples were prepared by using 0.5% carboxymethylcellulose sodium (0.5% CMC-Na).
Group and dose: in Test group 1, the ratio of picrinine, vallesamine, scholaricine and 19-epischolaricine by weight was 20:17:17:4, and the other groups and doses thereof were as described in Example 12.
Test index: Col-1 in homogenate was used as index, and was determined by enzyme linked immunosorbent assay.

[2] = tested on: CRP in serum in COPD model mouse; assay: Effect on CRP in serum in COPD model mouse; details: ELISA, ig 7 d, dose/kg: dexamethasone 1 mg, Test group 1 50, 2 25, 3 10, picrinine 10, vallesamine 6, scholaricine 7, 19-epi-scholaricine 2 mg, x ± SD
Protocol: (§6) Animal source: 25˜30 g male ICR mouse, from laboratory animal department of Kunming Medical University, License No. SCXK (Dian) 2011-0004.
Method and route: lipopolysaccharide (LPS) plus smoke exposure was used for 30 days to induce mouse chronic obstructive pulmonary disease model; and after intragastrical administration for 7 d at a dose of 20 mL/kg, the animal was sacrificed at the eighth day.
Picrinine group (10 mg/kg), Vallesamine group (6.0 mg/kg), Scholaricine group (7.0 mg/kg), 19-epischolaricine group (2.0 mg/kg).
as §5
Group and dose: in Test group 1, the ratio of picrinine, vallesamine, scholaricine and 19-epischolaricine by weight was 25:19:20:4, and the other groups and doses thereof were as described in Example 10.
Test index: CRP in serum was used as index, and was determined by enzyme linked immunosorbent assay.

[3] = tested on: WBC count and eosinophil percentage in BALF of asthma model mouse; assay: Effect on WBC count and eosinophil percentage in BALF of asthma model mouse; details: OVA-induced asthma mouse, ig 7 d, dose/kg: dexamethasone 2 mg, Test group 1 50, 2 25, picrinine 5.0, vallesamine 3.0, scholaricine 3.0, 19-epi-scholaricine 3.5 mg, x ± SD
Protocol: as §6
Method and route: ovalbumin (OVA) was used to induce mouse asthma model, and after intragastrical administration for 7 d at a dose of 20 mL/kg, the animal was sacrificed at the eighth day.
Test group 1: picrinine, vallesamine, scholaricine and 19-epischolaricine prepared in Example 1.7 were homogeneously mixed at different ratios by weight (50 mg/kg), Test group 2: the alkaloid composition prepared in Example 1.4 (25 mg/kg). […]
as §5
Group and dose: in Test group 1, the ratio of picrinine, vallesamine, scholaricine and 19-epischolaricine by weight was 41:45:28:7, and the other groups and doses thereof were as described in Example 11.
Test index: number of white blood cells (WBCs) and number of eosinophil in bronchoalveolar lavage fluid (BALF) were used as index, and were determined by full-automatic hemocytometer.

[4] = tested on: MDA in serum and homogenate of pulmonary fibrosis model mouse; assay: Effect on MDA in serum and homogenate of pulmonary fibrosis model mouse; details: bleomycin pulmonary fibrosis mouse, ig 28 d, dose/kg: prednisone acetate 5 mg, Test group 1 50, 2 25, 3 12.5, picrinine 5.0, vallesamine 3.0, scholaricine 3.5, 19-epi-scholaricine 1.0 mg, x ± SD
Protocol: as §1, §2, §3, §4, §5
Group and dose: in Test group 1, the ratio of picrinine, vallesamine, scholaricine and 19-epischolaricine by weight was 8:5:5:1, and the other groups and doses thereof were as described in Example 12.
Test index: MDA in serum and homogenate was used as index, and was determined by thiobabituric acid method.

[5] = tested on: KL-6 in serum of pulmonary fibrosis model mouse; assay: Effect on KL-6 in serum of pulmonary fibrosis model mouse; details: ELISA, bleomycin pulmonary fibrosis mouse, ig 28 d, dose/kg: prednisone acetate 5 mg, Test group 1 50, 2 25, 3 12.5, picrinine 5.0, vallesamine 3.0, scholaricine 3.5, 19-epi-scholaricine 1.0 mg, x ± SD
Protocol: as §1, §2, §3, §4, §5
Group and dose: in Test group 1, the ratio of picrinine, vallesamine, scholaricine and 19-epischolaricine by weight was 45:38:30:8, and the other groups and doses thereof were as described in Example 12.
Test index: KL-6 in serum was used as index, and was determined by enzyme linked immunosorbent assay.

[6] = tested on: SOD in serum and homogenate of pulmonary fibrosis model mouse; assay: Effect on SOD in serum and homogenate of pulmonary fibrosis model mouse; details: bleomycin pulmonary fibrosis mouse, ig 28 d, dose/kg: prednisone acetate 5 mg, Test group 1 50, 2 25, 3 12.5, picrinine 5.0, vallesamine 3.0, scholaricine 3.5, 19-epi-scholaricine 1.0 mg, x ± SD
Protocol: as §1, §2, §3, §4, §5
Group and dose: in Test group 1, the ratio of picrinine, vallesamine, scholaricine and 19-epischolaricine by weight was 10:7:7:2, and the other groups and doses thereof were as described in Example 12.
Test index: SOD in serum and homogenate was used as index, and was determined by xanthine oxidase method.

SMILES | Col-1 [1] [μg/g prot] | CRP [2] [pg/mL] | Eosinophil percentage [3] [%] | Number of WBCs [3] | MDA Homogenate ([4]; homogenate) [nmol/mg prot] | MDA Serum ([4]; serum) [nmol/mg prot] | KL-6 [5] [U/mg prot] | SOD homogenate ([6]; homogenate) [U/mg prot] | SOD Serum ([6]; serum) [U/mg prot]
C/C=C1/CN2CC[C@@H]1[C@@](CO)(C(=O)OC)c1[nH]c3ccccc3c1C2 [vallesamine] | 6.3 ± 2.7 | 23.8 ± 1.9 | 6.48 ± 2.84 | 0.73 ± 0.35 ×10^9/L |  |  |  |  | 
COC(=O)C1=C2Nc3c(O)cccc3[C@@]23CCN2C[C@@H]([C@H](C)O)[C@@H]1C[C@H]23 [19-epi-scholaricine, 19-epischolaricine] | 6.5 ± 2.2 |  |  |  | 22.0 ± 7.4 | 0.66 ± 0.18 | 4.10 ± 0.97 |  | 
C/C=C1/CN2[C@@H]3C[C@@]45c6ccccc6N[C@]4(O3)[C@@H]2C[C@@H]1[C@H]5C(=O)OC [picrinine] |  | 23.5 ± 2.2 | 6.18 ± 3.61 | 0.91 ± 0.50 ×10^9/L |  |  | 3.91 ± 0.60 | 53.2 ± 8.9 | 17.2 ± 5.1
